# Source: patent US9155317B2, “Antifungal compositions” (DSM IP ASSETS B.V., priority 2011, dated 2015)
# What was measured:
# Fusarium proliferatum [1] = assay: Treatment of wounded, inoculated bananas (mould growth); format: in vivo; conditions: 20° C.
# Experimental: Four organic, unripe (green) bananas were used per treatment. The peel of each banana was wounded thrice using a cork borer according to the method described by de Lapeyre de Bellaire and Dubois (1987). Subsequently, each wound was inoculated with 15 μl of a Fusarium proliferatum suspension containing 1×10^5 of spores/ml. […] In addition, the antifungal compositions comprised 1.00% (w/w) methylhydroxyethylcellulose (MHEC), 0.40% (w/w) xanthan gum, 0.20% (w/w) anti-foaming agent, 0.30% (w/w) citric acid, 0.39% (w/w) lactic acid and 0.11% (w/w) potassium sorbate. […] The treated, unripe bananas were incubated in a closed box in the dark at 20° C. and a relative air humidity of 95%, which was obtained in the presence of a saturated Na2HPO4 aqueous solution. During the first 20 days of incubation, a ripe (yellow) banana was included in the closed box to elevate the ethylene gas level and thus induce ripening of the treated, unripe bananas.
# (§1) The expected antifungal activity (E in %) of the combined antifungal composition comprising both active ingredients was calculated according to the Colby equation (Colby, 1967): E=X+Y−[(X·Y)/100] wherein X and Y are the observed antifungal activities (in %) of the individual active ingredients X and Y, respectively. If the observed antifungal activity (0 in %) of the combination exceeds the expected antifungal activity (E in %) of the combination and the synergy factor O/E is thus >1.0, the combined application of the active ingredients leads to a synergistic antifungal effect.
# The degree of mould growth on the banana wounds was assessed according to the two methods described in Example 3.
# Penicillium italicum = assay: Treatment of wounded, inoculated mandarins (mould growth); format: in vivo; conditions: 20° C.
# Experimental: Ten fresh, organic mandarins were used per treatment. The peel of each mandarin was wounded once using a cork borer according to the method described by de Lapeyre de Bellaire and Dubois (1987). Subsequently, each wound was inoculated with 10 μl of a Penicillium italicum suspension containing 1×10^4 of spores/ml.
# as §1, with “The treated mandarins were incubated in a closed box in the dark at 20° C. and assessed on mould growth after 16, 19, 22 and 26 days of incubation. […] The” for “The”, “(O” for “(0”
# Botrytis cinerea [2] = assay: In vitro antifungal activity, 96-well microtiter plates; format: cell-based; conditions: 5 days at 25° C., alone or combined with natamycin
# Experimental: The following compositions were tested:
# (§2) Subsequently, 100 μl of a Botrytis cinerea suspension prepared in PCB medium was used to inoculated each well with 2.5×10^3 spores/ml.
# (§3) After incubation of the microtiter plates for 5 days at 25° C., the in vitro antifungal activity (%) of the individual active ingredients was assessed by calculating the reduction in mould growth observed in the presence of the active ingredient in comparison to the mould growth observed in the absence of the active ingredient. The expected antifungal activity (E in %) of the active ingredient combination was calculated according to the Colby equation (Colby, 1967): E=X+Y−[(X·Y)/100] wherein X and Y are the observed antifungal activities (in %) of the individual active ingredients X and Y, respectively. If the observed antifungal activity (O in %) of the combination exceeds the expected antifungal activity (E in %) of the combination and the resulting synergy factor O/E is thus >1.0, the combined application of the active ingredients leads to a synergistic antifungal effect.
# Fusarium proliferatum [3] = assay: as above; format: cell-based; conditions: 5 days at 25° C.
# Experimental: as §2, §3
# The experiment was conducted as described in Example 11, except for the fact that the following compositions were tested:
# Furthermore, Fusarium proliferatum was used for inoculation.
# Botrytis cinerea [4] = assay: Treatment of wounded, inoculated strawberries (mould growth); format: in vivo; conditions: 20° C., 250 ppm natamycin, 500 ppm pyrimethanil or both
# Experimental: Twelve fresh, organic strawberries were used per treatment. Each strawberry was wounded with a 0.5 mm long cut and each wound was inoculated with 10 μl of a Botrytis cinerea suspension containing 1×10^5 of spores/ml. […] The antifungal composition also comprised 1.00% (w/w) methylhydroxyethylcellulose (MHEC), 0.40% (w/w) xanthan gum, 0.20% (w/w) anti-foaming agent, 0.30% (w/w) citric acid, 0.39% (w/w) lactic acid and 0.11% (w/w) potassium sorbate. A composition without natamycin or pyrimethanil was used as control.
# as §1, with “The treated strawberries were incubated for three days in a closed box in the dark at 20° C. and assessed daily on mould growth. The antifungal activity (in %) of the individual active ingredients was determined by calculating the reduction in mould growth observed on the strawberries treated with the antifungal composition in comparison to the mould growth on the strawberries treated with the control composition. The” for “The”, “(O” for “(0”
# [5] = 250 ppm natamycin, 500 ppm cyprodinil or both, 21 days
# [6] = 500 ppm natamycin, 1000 ppm cyprodinil or both, 27 days
# [7] = natamycin 1.25 ppm, cyprodinil 10 ppm, pyrimethanil 17.5 ppm
# [8] = natamycin […], cyprodinil 20 ppm, pyrimethanil 30 ppm
# [9] = 250 ppm natamycin, 500 ppm pyrimethanil or both, 23 days
# [10] = 250 ppm natamycin, 500 ppm pyrimethanil or both, 29 days
# [11] = 500 ppm natamycin, 1000 ppm pyrimethanil or both, 22 days
# [12] = 500 ppm natamycin, 1000 ppm pyrimethanil or both, 26 days
smiles,measurement,setting,value
"Cc1cc(C2CC2)nc(Nc2ccccc2)n1 [Cyprodinil, cyprodinil]",Observed antifungal activity O (%),"Fusarium proliferatum [1]; 50 ppm natamycin, 250 ppm cyprodinil or both, 23 days",0%
same,Observed antifungal activity O (%),"Fusarium proliferatum [1]; 50 ppm natamycin, 250 ppm cyprodinil or both, 29 days",0%
same,Observed antifungal activity O (%),"Fusarium proliferatum [1]; 50 ppm natamycin, 250 ppm cyprodinil or both, 32 days",0%
same,Observed antifungal activity O (%),"Fusarium proliferatum [1]; 50 ppm natamycin, 250 ppm cyprodinil or both, 36 days",0%
same,Number of moulded wounds/total number of 12 wounds,"Fusarium proliferatum [1]; 250 ppm natamycin, 500 ppm cyprodinil or both, 18 days",12/12
same,Number of moulded wounds/total number of 12 wounds,"Fusarium proliferatum [1]; 250 ppm natamycin, 500 ppm cyprodinil or both, 18 days, listed as cyprodinil",12
same,Number of moulded wounds/total number of 12 wounds,Fusarium proliferatum [1]; [5],12/12
same,Observed antifungal activity O (%),Fusarium proliferatum [1]; [5],35%
same,Number of moulded wounds/total number of 12 wounds,"Fusarium proliferatum [1]; 250 ppm natamycin, 500 ppm cyprodinil or both, 21 days, listed as cyprodinil",12
same,Observed antifungal activity O (%),"Fusarium proliferatum [1]; 250 ppm natamycin, 500 ppm cyprodinil or both, 32 days",3%
same,Observed antifungal activity O (%),"Fusarium proliferatum [1]; 250 ppm natamycin, 500 ppm cyprodinil or both, 34 days",0%
same,Number of moulded wounds/total number of 12 wounds,"Fusarium proliferatum [1]; 500 ppm natamycin, 1000 ppm cyprodinil or both, 23 days",12/12
same,Number of moulded wounds/total number of 12 wounds,"Fusarium proliferatum [1]; 500 ppm natamycin, 1000 ppm cyprodinil or both, 23 days, listed as cyprodinil",12
same,Number of moulded wounds/total number of 12 wounds,Fusarium proliferatum [1]; [6],12/12
same,Observed antifungal activity O (%),Fusarium proliferatum [1]; [6],18%
same,Number of moulded wounds/total number of 12 wounds,"Fusarium proliferatum [1]; 500 ppm natamycin, 1000 ppm cyprodinil or both, 27 days, listed as cyprodinil",12
same,Observed antifungal activity O (%),"Fusarium proliferatum [1]; 500 ppm natamycin, 1000 ppm cyprodinil or both, 39 days",0%
same,Observed antifungal activity O (%),"Penicillium italicum; 250 ppm natamycin, 500 ppm cyprodinil or both, 16 days",60%
same,Observed antifungal activity O (%),"Penicillium italicum; 250 ppm natamycin, 500 ppm cyprodinil or both, 19 days",38%
same,Observed antifungal activity O (%),"Penicillium italicum; 250 ppm natamycin, 500 ppm cyprodinil or both, 22 days",20%
same,Observed antifungal activity O (%),"Penicillium italicum; 250 ppm natamycin, 500 ppm cyprodinil or both, 26 days",13%
same,Observed antifungal activity O (%),Botrytis cinerea [2]; [7],0%
same,Observed antifungal activity O (%),Botrytis cinerea [2]; [8],0%
same,Observed antifungal activity O (%),"Fusarium proliferatum [3]; natamycin 1.25 ppm, cyprodinil 125 ppm or both",0%
"C[C@@H]1C/C=C/C=C/C=C/C=C/[C@H](O[C@@H]2O[C@H](C)[C@@H](O)[C@H](N)[C@@H]2O)C[C@@H]2O[C@](O)(C[C@@H](O)C[C@H]3O[C@@H]3/C=C/C(=O)O1)C[C@H](O)[C@H]2C(=O)O [Natamycin, natamycin]",Observed antifungal activity O (%),Fusarium proliferatum [1]; [9],19%
same,Observed antifungal activity O (%),Fusarium proliferatum [1]; [10],9%
same,Observed antifungal activity O (%),Botrytis cinerea [4]; 1 day,25%
same,Observed antifungal activity O (%),Botrytis cinerea [4]; 2 days,31%
same,Observed antifungal activity O (%),Botrytis cinerea [4]; 3 days,24%
same,Observed antifungal activity O (%),Penicillium italicum; [11],37%
same,Observed antifungal activity O (%),Penicillium italicum; [12],30%
"Cc1cc(C)nc(Nc2ccccc2)n1 [Pyrimethanil, pyrimethanil]",Observed antifungal activity O (%),Fusarium proliferatum [1]; [9],0%
same,Observed antifungal activity O (%),Fusarium proliferatum [1]; [10],0%
same,Observed antifungal activity O (%),"Fusarium proliferatum [1]; 250 ppm natamycin, 500 ppm pyrimethanil or both, 32 days",0%
same,Observed antifungal activity O (%),"Fusarium proliferatum [1]; 250 ppm natamycin, 500 ppm pyrimethanil or both, 34 days",0%
same,Observed antifungal activity O (%),Botrytis cinerea [4]; 1 day,0%
same,Observed antifungal activity O (%),Botrytis cinerea [4]; 2 days,0%
same,Observed antifungal activity O (%),Botrytis cinerea [4]; 3 days,0%
same,Observed antifungal activity O (%),"Penicillium italicum; 250 ppm natamycin, 500 ppm pyrimethanil or both, 19 days",84%
same,Observed antifungal activity O (%),"Penicillium italicum; 250 ppm natamycin, 500 ppm pyrimethanil or both, 22 days",74%
same,Observed antifungal activity O (%),"Penicillium italicum; 250 ppm natamycin, 500 ppm pyrimethanil or both, 26 days",65%
same,Observed antifungal activity O (%),Penicillium italicum; [11],82%
same,Observed antifungal activity O (%),Penicillium italicum; [12],79%
same,Observed antifungal activity O (%),Botrytis cinerea [2]; [7],50%
same,Observed antifungal activity O (%),Botrytis cinerea [2]; [8],50%
same,Observed antifungal activity O (%),"Fusarium proliferatum [3]; natamycin 2.5 ppm, pyrimethanil 275 ppm or both",0%
